PubChem BioAssay AID1259407 (Chemical Carcinogenesis Research Information System (CCRIS), 2018)
Activity calls are given as the source filed them. No rule for the calls is given here.

Test system: CCRIS mutagenicity, Ames/micronucleus/aberration tests
Experiment: CCRIS mutagenicity studies
[1] = Test System: AMES SALMONELLA TYPHIMURIUM, Strain/Indicator: TA1538, Metabolic Activation: NONE, Method: STANDARD PLATE
[2] = Test System: AMES SALMONELLA TYPHIMURIUM, Strain/Indicator: TA100, Metabolic Activation: RAT, LIVER, S-9, AROCLOR 1254, Method: STANDARD PLATE
[3] = Test System: AMES SALMONELLA TYPHIMURIUM, Strain/Indicator: TA1535, Metabolic Activation: RAT, LIVER, S-9, AROCLOR 1254, Method: STANDARD PLATE

Cc1cc(-c2ccc(N/N=C3/C(=O)c4c(N)cc(S(=O)(=O)O)cc4C=C3S(=O)(=O)O)c(C)c2)ccc1N/N=C1/C(=O)c2c(N)cc(S(=O)(=O)O)cc2C=C1S(=O)(=O)O
mutagenic call (Test System: AMES SALMONELLA TYPHIMURIUM, Strain/Indicator: TA98, Metabolic Activation: HAMSTER, LIVER, S-9, Method: PREINCUBATION (PRIVAL METHOD)): active; positive
mutagenic call (Test System: AMES SALMONELLA TYPHIMURIUM, Strain/Indicator: TA100, Metabolic Activation: HAMSTER, LIVER, S-9, Method: PREINCUBATION (PRIVAL METHOD)): active; positive
mutagenic call [1]: inactive; negative
mutagenic call (Test System: Ames Salmonella typhimurium, Strain/Indicator: TA98, Metabolic Activation: Rat, Liver, S-9, Sodium phenobarbitone, Method: Preincubation): inactive; negative, test conducted under both aerobic and anaerobic conditions.
mutagenic call (Test System: Ames Salmonella typhimurium, Strain/Indicator: TA1538, Metabolic Activation: Rat, Liver, S-9, Sodium phenobarbitone, Method: Preincubation): inactive; negative, test conducted under both aerobic and anaerobic conditions.
mutagenic call (Test System: Mouse lymphoma, Strain/Indicator: L5178Y (tk+/tk-), Metabolic Activation: None, Method: Suspension/plate): inactive; negative
mutagenic call (Test System: Mouse lymphoma, Strain/Indicator: L5178Y (tk+/tk-), Metabolic Activation: Rat, Liver, S-9, Aroclor 1254, Method: Suspension/plate): inactive; negative

CCN(CC)S(=O)(=O)c1ccc(N)cc1
mutagenic call (Test System: AMES SALMONELLA TYPHIMURIUM, Strain/Indicator: TA98, Metabolic Activation: NONE, Method: PREINCUBATION): inactive; negative
mutagenic call (Test System: AMES SALMONELLA TYPHIMURIUM, Strain/Indicator: TA98, Metabolic Activation: RAT, LIVER, S-9, AROCLOR 1254, Method: PREINCUBATION): inactive; negative
mutagenic call (Test System: AMES SALMONELLA TYPHIMURIUM, Strain/Indicator: TA100, Metabolic Activation: NONE, Method: PREINCUBATION): inactive; negative
mutagenic call (Test System: AMES SALMONELLA TYPHIMURIUM, Strain/Indicator: TA100, Metabolic Activation: RAT, LIVER, S-9, AROCLOR 1254, Method: PREINCUBATION): inactive; negative

O=P(O)(OCC(Br)CBr)OCC(Br)CBr (stereo not given)
mutagenic call [2]: active; positive
mutagenic call [3]: active; positive

CC(C)n1c(/C=C/[C@H](O)C[C@H](O)CC(=O)O)c(-c2ccc(F)cc2)c2ccccc21
mutagenic call (End Point: AMES SALMONELLA TYPHIMURIUM, Test System: TA98, Metabolic Activation: NONE, Method: STANDARD PLATE): inactive; negative
mutagenic call (End Point: AMES SALMONELLA TYPHIMURIUM, Test System: TA98, Metabolic Activation: RAT, LIVER, S-9, AROCLOR 1254, Method: STANDARD PLATE): inactive; negative
mutagenic call (End Point: AMES SALMONELLA TYPHIMURIUM, Test System: TA100, Metabolic Activation: NONE, Method: STANDARD PLATE): inactive; negative
mutagenic call (End Point: AMES SALMONELLA TYPHIMURIUM, Test System: TA100, Metabolic Activation: RAT, LIVER, S-9, AROCLOR 1254, Method: STANDARD PLATE): inactive; negative
mutagenic call (End Point: AMES SALMONELLA TYPHIMURIUM, Test System: TA1535, Metabolic Activation: NONE, Method: STANDARD PLATE): inactive; negative
mutagenic call (End Point: AMES SALMONELLA TYPHIMURIUM, Test System: TA1535, Metabolic Activation: RAT, LIVER, S-9, AROCLOR 1254, Method: STANDARD PLATE): inactive; negative
mutagenic call (End Point: AMES SALMONELLA TYPHIMURIUM, Test System: TA1537, Metabolic Activation: NONE, Method: STANDARD PLATE): inactive; negative
mutagenic call (End Point: AMES SALMONELLA TYPHIMURIUM, Test System: TA1537, Metabolic Activation: RAT, LIVER, S-9, AROCLOR 1254, Method: STANDARD PLATE): inactive; negative
mutagenic call (End Point: AMES SALMONELLA TYPHIMURIUM, Test System: TA1538, Metabolic Activation: NONE, Method: STANDARD PLATE): inactive; negative
mutagenic call (End Point: AMES SALMONELLA TYPHIMURIUM, Test System: TA1538, Metabolic Activation: RAT, LIVER, S-9, AROCLOR 1254, Method: STANDARD PLATE): inactive; negative
mutagenic call (End Point: E. COLI, Test System: WP2 UVRA/PKM101, Metabolic Activation: NONE, Method: STANDARD PLATE): inactive; negative
mutagenic call (End Point: E. COLI, Test System: WP2 UVRA/PKM101, Metabolic Activation: RAT, LIVER, S-9, AROCLOR 1254, Method: STANDARD PLATE): inactive; negative
mutagenic call (End Point: E. COLI, Test System: WP2 UVRA, Metabolic Activation: NONE, Method: STANDARD PLATE): inactive; negative
mutagenic call (End Point: E. COLI, Test System: WP2 UVRA, Metabolic Activation: RAT, LIVER, S-9, AROCLOR 1254, Method: STANDARD PLATE): inactive; negative
mutagenic call (End Point: IN VITRO CHROMOSOMAL ABERRATIONS, Test System: CHINESE HAMSTER V79A, Metabolic Activation: NONE): inactive; negative
mutagenic call (End Point: IN VITRO CHROMOSOMAL ABERRATIONS, Test System: CHINESE HAMSTER V79A, Metabolic Activation: RAT, LIVER, S-9, AROCLOR 1254): inactive; negative
mutagenic call (End Point: IN VIVO MICRONUCLEUS, Test System: BONE MARROW POLYCHROMATIC ERYTHROCYTES, Species: MOUSE, Strain/Sex: CD-1/MALE, FEMALE, Route: GAVAGE): inactive; negative
mutagenic call (Test System: AMES SALMONELLA TYPHIMURIUM, Strain/Indicator: TA98, Metabolic Activation: NONE, Method: STANDARD PLATE): inactive; negative
mutagenic call (Test System: AMES SALMONELLA TYPHIMURIUM, Strain/Indicator: TA98, Metabolic Activation: RAT, LIVER, S-9, AROCLOR 1254, Method: STANDARD PLATE): inactive; negative
mutagenic call (Test System: AMES SALMONELLA TYPHIMURIUM, Strain/Indicator: TA100, Metabolic Activation: NONE, Method: STANDARD PLATE): inactive; negative
mutagenic call [2]: inactive; negative
mutagenic call (Test System: AMES SALMONELLA TYPHIMURIUM, Strain/Indicator: TA1535, Metabolic Activation: NONE, Method: STANDARD PLATE): inactive; negative
mutagenic call [3]: inactive; negative
mutagenic call (Test System: AMES SALMONELLA TYPHIMURIUM, Strain/Indicator: TA1537, Metabolic Activation: NONE, Method: STANDARD PLATE): inactive; negative
mutagenic call (Test System: AMES SALMONELLA TYPHIMURIUM, Strain/Indicator: TA1537, Metabolic Activation: RAT, LIVER, S-9, AROCLOR 1254, Method: STANDARD PLATE): inactive; negative
mutagenic call [1]: inactive; negative
mutagenic call (Test System: AMES SALMONELLA TYPHIMURIUM, Strain/Indicator: TA1538, Metabolic Activation: RAT, LIVER, S-9, AROCLOR 1254, Method: STANDARD PLATE): inactive; negative
mutagenic call (Test System: CHINESE HAMSTER FIBROBLASTS, Strain/Indicator: CHINESE HAMSTER V79A/HGPRT, Metabolic Activation: NONE): inactive; negative
mutagenic call (Test System: CHINESE HAMSTER FIBROBLASTS, Strain/Indicator: CHINESE HAMSTER V79A/HGPRT, Metabolic Activation: RAT, LIVER, S-9, AROCLOR 1254): inactive; negative
mutagenic call (Test System: CHINESE HAMSTER V-79, Strain/Indicator: V-79 (HGPRT), Metabolic Activation: NONE): inactive; negative
mutagenic call (Test System: CHINESE HAMSTER V-79, Strain/Indicator: V-79 (HGPRT), Metabolic Activation: RAT, LIVER, S-9, AROCLOR 1254): inactive; negative
mutagenic call (Test System: E. COLI, Strain/Indicator: WP2 UVRA (PKM101), Metabolic Activation: NONE, Method: STANDARD PLATE): inactive; negative
mutagenic call (Test System: E. COLI, Strain/Indicator: WP2 UVRA (PKM101), Metabolic Activation: RAT, LIVER, S-9, AROCLOR 1254, Method: STANDARD PLATE): inactive; negative
mutagenic call (Test System: E. COLI, Strain/Indicator: WP2 UVRA, Metabolic Activation: NONE, Method: STANDARD PLATE): inactive; negative
mutagenic call (Test System: E. COLI, Strain/Indicator: WP2 UVRA, Metabolic Activation: RAT, LIVER, S-9, AROCLOR 1254, Method: STANDARD PLATE): inactive; negative

Cc1c(N)nc(C(CC(N)=O)NCC(N)C(N)=O)nc1C(=O)NC(C(=O)NC(C)C(O)C(C)C(=O)NC(C(=O)NCCc1nc(-c2nc(C(=O)NCCc3cnc[nH]3)cs2)cs1)C(C)O)C(OC1OC(CO)C(O)C(O)C1OC1OC(CO)C(O)C(OC(N)=O)C1O)c1cnc[nH]1 (stereo not given)
mutagenic call (Test System: AMES SALMONELLA TYPHIMURIUM, Strain/Indicator: TA102, Metabolic Activation: NONE, Method: PREINCUBATION): active; positive

CC(=O)N1CCc2cc([N+](=O)[O-])ccc21
mutagenic call (End Point: IN VITRO CHROMOSOMAL ABERRATIONS, Test System: CHL CELLS, Metabolic Activation: RAT, LIVER, S-9, SODIUM PHENOBARBITAL AND 5,6-BENZOFLAVONE): inactive; negative
